Assay results taken from US20260000656A1, “ANTIFUNGAL AGENTS WITH ENHANCED ACTIVITY IN ACIDIC PH” (Scynexis, Inc., priority 2017, published 2026).
≈ marks a conversion by molar mass, not a printed value. Like-named read-outs stand apart in the source and are kept apart here.

Test system: C. albicans isolates
Test: Broth microdilution susceptibility (CLSI M27-A3) at different medium pH
Assay type: cell-based, Candida albicans
Conditions: for MIC50: read-out: MIC50
Protocol: Ten strains each of C. glabrata and C. albicans vaginal isolates were tested. The strains were obtained from recent clinical trial patients with vulvovaginal candidiasis (VVC) prior to treatment. Candida strains were obtained from the Mycology Reference Library (MRL) at Case Western Reserve University School of Medicine, Ohio, United States.
Susceptibility testing was performed using a broth microdilution method, according to CLSI M27-A3 guidelines (CLSI. 2008. Reference Method for Broth Dilution Antifungal Susceptibility Testing of Yeasts; Approved Standard—Third Edition. Clinical and Laboratory Standards Institute, CLSI document M27-A3). Antifungals and concentrations tested were SCY-078 and micafungin (both at concentrations within the range of 0.015 to 8 μg/ml) and fluconazole (at concentrations within the range of 0.125 to 64 μg/ml). A 0.1-ml C. albicans and C. glabrata inoculum of 0.5-2.5×10^3 blastospores/ml in RPMI 1640 medium was added to each microdilution well. ATCC strains of Candida parapsilosis and Candida krusei QC isolates were also included concurrently to ensure quality control. Antifungal susceptibility testing was carried out for each isolate in RPMI 1640 at pH 7 (to mimic RPMI medium used in testing the susceptibility of yeast by the CLSI M-27A3 document), pH 5.7, and pH 4.5 (to mimic the pH of the vaginal cavity) by adjusting the pH of the media using NaOH or HCl. […] Agents Chemother., 43: 1383-1386 (1999).
[…] SCY-078 powder was manufactured by Avista, Laboratories, NC. Micafungin and fluconazole were sourced from LGM Pharma.

[1] = 50% inhibition, pH 4.5, 24 h, 10 vaginal isolates

SMILES: CC(C)[C@@H](C)[C@@]1(C)CC[C@]2(C)[C@H]3CC[C@@H]4[C@@]5(COC[C@]4(C)[C@@H](OC[C@](C)(N)C(C)(C)C)[C@H](n4ncnc4-c4ccncc4)C5)C3=CC[C@@]2(C)[C@@H]1C(=O)O [SCY-078]
- MIC90 [1]: < 0.016 µg/mL
- MIC range [1]: <0.016 to 0.031 µg/mL
- MIC range (50% inhibition, pH 5.72, 24 h, 10 vaginal isolates): 0.125 to .25 µg/mL
- MIC range (50% inhibition, pH 7.0, 24 h, 10 vaginal isolates): 0.125 to 0.5 µg/mL
- MIC range (100% inhibition, pH 4.5, 24 hours, 10 isolates): <0.016 to 4 µg/mL
- MIC range (100% inhibition, pH 5.72, 24 hours, 10 isolates): 0.25 to 2 µg/mL
- MIC range (100% inhibition, pH 7.0, 24 hours, 10 isolates): 0.25 to 4 µg/mL
- reduction in MIC50 at pH 4.5 compared to the MIC50 at pH 7.0 (C. albicans isolates): 16 fold
- MIC50 (Candida albicans, 24 h, pH 4.5, 50% inhibition, pH 4.5, 24 h, 10 vaginal isolates): < 0.016 µg/mL
- MIC90 (Candida albicans, 24 h, pH 4.5, 50% inhibition, pH 4.5, 24 h, 10 vaginal isolates, read-out: MIC90): < 0.016 µg/mL
- MIC50 (Candida albicans, 24 h, pH 4.5, 100% inhibition, pH 4.5, 24 hours, 10 isolates): 0.031 µg/mL (≈ 0.0425 µM)
- MIC90 (Candida albicans, 24 h, pH 4.5, 100% inhibition, pH 4.5, 24 hours, 10 isolates, read-out: MIC90): 0.031 µg/mL (≈ 0.0425 µM)
- MIC (Candida albicans, 24 h, pH 4.5, C. albicans MRL 34366, pH 4.5, 24 hours, read-out: MIC (50% inhibition)): 0.031 µg/mL (≈ 0.0425 µM)
- MIC (Candida albicans, 24 h, pH 4.5, C. albicans MRL 34366, pH 4.5, 24 hours, read-out: MIC (100% inhibition)): 0.031 µg/mL (≈ 0.0425 µM)
- MIC (Candida albicans, 24 h, pH 4.5, C. albicans MRL 34367, pH 4.5, 24 hours, read-out: MIC (50% inhibition)): < 0.016 µg/mL
- MIC (Candida albicans, 24 h, pH 4.5, C. albicans MRL 34367, pH 4.5, 24 hours, read-out: MIC (100% inhibition)): 0.031 µg/mL (≈ 0.0425 µM)
- MIC (Candida albicans, 24 h, pH 4.5, C. albicans MRL 34372, pH 4.5, 24 hours, read-out: MIC (50% inhibition)): < 0.016 µg/mL
- MIC (Candida albicans, 24 h, pH 4.5, C. albicans MRL 34372, pH 4.5, 24 hours, read-out: MIC (100% inhibition)): < 0.016 µg/mL
- MIC (Candida albicans, 24 h, pH 4.5, C. albicans MRL 34373, pH 4.5, 24 hours, read-out: MIC (50% inhibition)): < 0.016 µg/mL
- MIC (Candida albicans, 24 h, pH 4.5, C. albicans MRL 34373, pH 4.5, 24 hours, read-out: MIC (100% inhibition)): < 0.016 µg/mL
- MIC (Candida albicans, 24 h, pH 4.5, C. albicans MRL 34374, pH 4.5, 24 hours, read-out: MIC (50% inhibition)): < 0.016 µg/mL
- MIC (Candida albicans, 24 h, pH 4.5, C. albicans MRL 34374, pH 4.5, 24 hours, read-out: MIC (100% inhibition)): < 0.016 µg/mL
- MIC (Candida albicans, 24 h, pH 4.5, C. albicans MRL 34385, pH 4.5, 24 hours, read-out: MIC (50% inhibition)): < 0.016 µg/mL
- MIC (Candida albicans, 24 h, pH 4.5, C. albicans MRL 34385, pH 4.5, 24 hours, read-out: MIC (100% inhibition)): 0.031 µg/mL (≈ 0.0425 µM)
- MIC (Candida albicans, 24 h, pH 4.5, C. albicans MRL 34389, pH 4.5, 24 hours, read-out: MIC (50% inhibition)): < 0.016 µg/mL
- MIC (Candida albicans, 24 h, pH 4.5, C. albicans MRL 34389, pH 4.5, 24 hours, read-out: MIC (100% inhibition)): 0.031 µg/mL (≈ 0.0425 µM)
- MIC (Candida albicans, 24 h, pH 4.5, C. albicans MRL 34399, pH 4.5, 24 hours, read-out: MIC (50% inhibition)): < 0.016 µg/mL
- MIC (Candida albicans, 24 h, pH 4.5, C. albicans MRL 34399, pH 4.5, 24 hours, read-out: MIC (100% inhibition)): 0.031 µg/mL (≈ 0.0425 µM)
- MIC (Candida albicans, 24 h, pH 4.5, C. albicans MRL 34408, pH 4.5, 24 hours, read-out: MIC (50% inhibition)): < 0.016 µg/mL
- MIC (Candida albicans, 24 h, pH 4.5, C. albicans MRL 34408, pH 4.5, 24 hours, read-out: MIC (100% inhibition)): 4 µg/mL (≈ 5.48 µM)
- MIC (Candida albicans, 24 h, pH 4.5, C. albicans MRL 34449, pH 4.5, 24 hours, read-out: MIC (50% inhibition)): < 0.016 µg/mL
- MIC (Candida albicans, 24 h, pH 4.5, C. albicans MRL 34449, pH 4.5, 24 hours, read-out: MIC (100% inhibition)): 0.031 µg/mL (≈ 0.0425 µM)
- MIC50 (Candida albicans, 24 h, pH 5.72, 50% inhibition, pH 5.72, 24 h, 10 vaginal isolates): 0.25 µg/mL (≈ 0.342 µM)
- MIC90 (Candida albicans, 24 h, pH 5.72, 50% inhibition, pH 5.72, 24 h, 10 vaginal isolates, read-out: MIC90): 0.25 µg/mL (≈ 0.342 µM)
- MIC50 (Candida albicans, 24 h, pH 5.72, 100% inhibition, pH 5.72, 24 hours, 10 isolates): 0.25 µg/mL (≈ 0.342 µM)
- MIC90 (Candida albicans, 24 h, pH 5.72, 100% inhibition, pH 5.72, 24 hours, 10 isolates, read-out: MIC90): 0.5 µg/mL (≈ 0.685 µM)
- MIC (Candida albicans, 24 h, pH 5.72, C. albicans MRL 34366, pH 5.72, 24 hours, read-out: MIC (50% inhibition)): 0.25 µg/mL (≈ 0.342 µM)
- MIC (Candida albicans, 24 h, pH 5.72, C. albicans MRL 34366, pH 5.72, 24 hours, read-out: MIC (100% inhibition)): 0.5 µg/mL (≈ 0.685 µM)
- MIC (Candida albicans, 24 h, pH 5.72, C. albicans MRL 34367, pH 5.72, 24 hours, read-out: MIC (50% inhibition)): 0.125 µg/mL (≈ 0.171 µM)
- MIC (Candida albicans, 24 h, pH 5.72, C. albicans MRL 34367, pH 5.72, 24 hours, read-out: MIC (100% inhibition)): 0.5 µg/mL (≈ 0.685 µM)
